“Also recorded” adds a separate entry of the source.
System: neuroendocrine tumor (NET) with ETV6:NTRK3 translocation
Assay: Treatment of a NET patient with the Trk inhibitor entrectinib (case report, Example 1)
Format: in vivo, human
Details: for weight gain: patient
Source text: A previously healthy patient presented with progressive low back pain and 11 kg weight loss over the previous year. They were a never-smoker, occasional alcohol drinker, and an avid runner. The patient had no relevant family history of cancer.
A right upper quadrant ultrasound noted echogenic masses present in the liver. A computed tomography (CT) scan identified low-density liver lesions, adrenal masses, bulky retroperitoneal and pelvic lymphadenopathy, and diffuse bony disease. […] Multiple hypermetabolic liver lesions are seen, and innumerable lesions are seen throughout the skeleton (FIG. 1A). CT-guided biopsy of the left iliac bone reported well-differentiated neuroendocrine carcinoma (NETs), possibly from a lower GI source. […] Repeat CT-guided core biopsy of a right iliac soft tissue mass confirmed the absence of a high-grade component, consistent with the initial biopsy.
The patient received 3000 cGy of palliative radiotherapy to L1-S3 in 10 fractions for pain management followed by temozolomide and capecitabine chemotherapy.
Following chemotherapy, a tumor biopsy was obtained from the patient's lymph node, FFPE slides were prepared, and the NTRK status of the patient's NET was first analyzed by immunohistochemistry (IHC). The patient's tumor was positive for altered NTRK protein expression and the NET was subsequently analyzed by RNAseq NGS. An ETV6:NTRK3 translocation was identified in the patient's tumor and therapy was initiated with the investigational agent entrectinib, a potent oral tyrosine kinase inhibitor of TrkA, TrkB, and TrkC.

[1] = after cycle #1 (one month) of entrectinib treatment

CN1CCN(c2ccc(C(=O)Nc3n[nH]c4ccc(Cc5cc(F)cc(F)c5)cc34)c(NC3CCOCC3)c2)CC1 [entrectinib, N-[5-(3,5-difluoro-benzyl)-1h-indazol-3-yl]-4-(4-methyl-piperazin-1-yl)-2-(tetrahydro-pyran-4-ylamino)-benzamide]
axial contrast-enhanced abdominal CT, left pelvic sidewall masses (after 1 cycle of entrectinib, compared with the scan after chemotherapy (FIG. 3B vs 3A)): appear swollen and measure larger, but are lower in density; also recorded: appeared swollen and measured larger, but was lower in density than the previous scan
FDG-PET imaging, skeleton / bony disease (after 2 cycles of entrectinib (FIG. 1B, right proximal femur)): improvement in the previously confluent bony disease; also recorded: clear improvement was observed in the skeleton
octreoscan, overall disease (tumor) burden (after 6 months (6 cycles) of entrectinib, compared with presentation (FIG. 2B vs 2A)): significant overall reduction in tumor burden; also recorded: significant reduction in overall disease burden
pain and energy levels (patient-reported) [1]: significant improvement in pain and energy levels
clinical status (energy, activity, pain control requirements) (at 8 months on entrectinib): normalized energy and activity, and markedly reduced pain control requirements
response of liver metastases (during entrectinib treatment): some liver metastases have responded, while others have not
adverse events (patient on entrectinib up to 8 months): no notable adverse events
weight gain [1]: 6 kg
weight gain (at 8 months on entrectinib, stabilized): 12 kg
follow-up CT scans, pelvic nodal masses (subsequent months of entrectinib treatment): continued shrinkage of the pelvic nodal masses

Reference: patent US10180422B1, “Methods of treating a neuroendocrine tumor” (Scripps Health, priority 2017, dated 2019)
